Measured values from patent US10221163B2 (priority 2015, dated 2019).
Where two headings read alike, the source gives them in different places.

Tests used:
[1] = system: Pseudomonas aeruginosa efflux− (MB9799), IMP-1; assay type: cell-based; conditions: efflux− MB9799; imipenem at 2 μg/mL; in the presence of a class A, C, D serine β-lactamase inhibitor closely related to relebactam
Summary of the method: (§1)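 Steps: add fixed imipenem and/or ceftazidime (usually CLSI breakpoint) and fixed AmpC-directed class A/C inhibitor to microbroth MIC wells; titrate MBL inhibitor; record concentration regaining susceptibility for each PAO1-derived strain; divide efflux+ by efflux− value.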

NDM-1 = NDM-1 (Klebsiella pneumoniae, UniProt C7C422); assay: biochemical; assay type: biochemical; conditions: fluorescence assay, CCF2-FA substrate, 1 pM enzyme, 2 hours at 25° C.; read-out: NDM-1 IC50
Summary of the method: (§2)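 Enzyme activity was measured by fluorescence using CCF2-FA, a cephalosporin-linked 7-hydroxycoumarin/fluorescein substrate, with inhibitor, metallo-β-lactamase and substrate incubated together for 2 hours at 25° C. IC50 came from a 4-parameter fit of inhibition versus log inhibitor concentration.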

IMP-1 = IMP-1 (Serratia marcescens, UniProt P52699); assay: biochemical; assay type: biochemical; conditions: CCF2-FA substrate, 2 pM enzyme, 2 hours at 25° C.
Summary of the method: as §2

[2] = system: Pseudomonas aeruginosa efflux+ (MB9798), IMP-1; assay type: cell-based; design: Concentration of metallo-β-lactamase inhibitor which restores susceptibility of efflux + (MB9798) strain to imipenem: unit not given here; conditions: efflux+ MB9798; imipenem at 2 μg/mL; in the presence of a class A, C, D serine β-lactamase inhibitor closely related to relebactam
Summary of the method: as §1

[3] = system: Serratia marcescens expressing IMP-1 (CL5741); assay type: cell-based; conditions: IMP-1 strain CL5741, with imipenem 1 μg/ml, 95% inhibition of growth
Summary of the method: (§3)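 Clinical isolates (E. coli NDM-1, S. marcescens IMP-1, K. pneumoniae VIM-1) were diluted 1:100 from saline suspension into 1.1×CAMHB and exposed to test compound with imipenem at 1 μg/ml. Plates were incubated at 35° C for 22 hours to 24 hours, and growth was read by absorbance.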

[4] = system: Klebsiella pneumoniae expressing VIM-1 (IHMA599644); assay type: cell-based; conditions: VIM-1 strain IHMA599644, with imipenem 1 μg/ml, 95% inhibition of growth
Summary of the method: as §3

[5] = system: Escherichia coli expressing NDM-1 (CLB30005, CLB30016); assay type: cell-based; conditions: NDM-1 strain, with imipenem 1 μg/ml, 95% inhibition of growth
Summary of the method: as §3

[6] = system: Pseudomonas aeruginosa MB9798 vs MB9799; conditions: fold difference between efflux+ (MB9798) and efflux− (MB9799) strains; imipenem at 2 μg/mL
Summary of the method: as §1

VIM-1 = VIM-1 (Pseudomonas aeruginosa (strain ATCC 15692 / DSM 22644 / CIP 104116 / JCM 14847 / LMG 12228 / 1C / PRS 101 / PAO1), UniProt A0A0F7KYQ8); assay: biochemical; conditions: CCF2-FA substrate, 30 pM enzyme, 2 hours at 25° C.
Summary of the method: as §2

[7] = fluorescence assay, read-out: VIM-1 IC50
[8] = fluorescence assay, read-out: IMP-1 IC50

Chain of NDM-1 (C7C422 whole entry, looked up, species assumed): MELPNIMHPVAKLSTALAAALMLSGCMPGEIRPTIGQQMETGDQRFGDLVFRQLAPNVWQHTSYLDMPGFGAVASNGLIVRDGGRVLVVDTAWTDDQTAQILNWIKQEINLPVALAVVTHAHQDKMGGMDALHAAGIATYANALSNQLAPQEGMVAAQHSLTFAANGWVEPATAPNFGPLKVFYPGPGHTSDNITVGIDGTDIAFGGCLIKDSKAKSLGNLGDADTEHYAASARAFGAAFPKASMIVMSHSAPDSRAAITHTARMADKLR
Chain of IMP-1 (P52699 whole entry, looked up, species assumed): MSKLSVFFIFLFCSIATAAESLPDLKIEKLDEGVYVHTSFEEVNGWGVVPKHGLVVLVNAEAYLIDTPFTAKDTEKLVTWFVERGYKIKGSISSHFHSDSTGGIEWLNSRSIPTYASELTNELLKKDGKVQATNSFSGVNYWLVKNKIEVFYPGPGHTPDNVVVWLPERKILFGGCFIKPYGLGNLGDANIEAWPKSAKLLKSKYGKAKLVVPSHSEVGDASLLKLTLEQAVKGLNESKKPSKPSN

Row | Compound | Concentration of metallo-β-lactamase inhibitor which restores susceptibility of efflux − (MB9799) strain to imipenem [1] | IC50 (NDM-1) [nM] | IC50 (IMP-1; IMP-1 IC50, fluorescence assay) [nM] | Concentration of metallo-β-lactamase inhibitor which restores susceptibility of efflux + (MB9798) strain to imipenem [2] | Serratia marcescens MITC95 [3] [µM] | Klebsiella pneumoniae MITC95 [4] [µM] | Escherichia coli MITC95 [5] [µM] | Efflux ratio [6] | IC50 (VIM-1; [7]) [nM] | IC50 (IMP-1; [8]) [nM] | IC50 (VIM-1; VIM-1 IC50, fluorescence assay) [nM]
1 | C[N+](C)(C)CCNS(=O)(=O)c1ccc(-c2cccc3sc(N)nc23)c(-c2nnn[nH]2)c1S(N)(=O)=O.O=C([O-])C(F)(F)F [Example 391, 2-({[4-(2-amino-1,3-benzothiazol-4-yl)-2-sulfamoyl-3-(1H-tetrazol-5-yl)phenyl]sulfonyl}amino)-N,N,N-trimethylethanaminium trifluoroacetate] | 1.563 | 0.028 | 0.209 | 1.563 | 3.125 | 6.25 | 3.125 | 1.00 | 0.0965 | – | –
2 | C[C@H](CN)NS(=O)(=O)c1ccc(-c2ccc(N)nc2)c(-c2nn[nH]n2)c1S(N)(=O)=O [Example 393, (R)—N^1-(1-aminopropan-2-yl)-4-(6-aminopyridin-3-yl)-3-(2H-tetrazol-5-yl)benzene-1,2-disulfonamide] | 1.042 | 0.0219 | – | 0.7813 | 1.042 | 2.083 | 0.651 | 0.75 | 0.0454 | 0.0629 | –
3 | C[C@@H](CN)NS(=O)(=O)c1ccc(-c2ccc(N)nc2)c(-c2nn[nH]n2)c1S(N)(=O)=O [Example 394] | 1.563 | 1.89 | – | 3.125 | 1.563 | 3.125 | 0.3906 | 2.00 | 1.24 | 2 | –
4 | C[C@H](CN)NS(=O)(=O)c1ccc(-c2cccc3c2nc(N)n3C)c(-c2nn[nH]n2)c1S(N)(=O)=O [Example 395] | 0.7813 | 0.0315 | – | 1.563 | 1.563 | 1.563 | 0.3906 | 2.00 | – | 0.156 | 0.108
5 | C[C@@H](CN)NS(=O)(=O)c1ccc(-c2ccnc(N)c2)c(-c2nn[nH]n2)c1S(N)(=O)=O [Example 398] | 1.563 | 2.54 | – | 6.25 | 1.563 | 3.125 | 3.125 | 4.00 | 0.939 | 7.45 | –
6 | NCCNS(=O)(=O)c1ccc(-c2ccnc(N)c2)c(-c2nn[nH]n2)c1S(N)(=O)=O [Example 400] | 0.7813 | 0.598 | – | 1.563 | 0.3906 | 1.563 | 0.1953 | 2.00 | 0.244 | 1.42 | –
7 | NCCNS(=O)(=O)c1ccc(-c2ccc3nccn3c2)c(-c2nn[nH]n2)c1S(N)(=O)=O [Example 401] | 0.7813 | 0.197 | – | 1.563 | 0.3906 | 1.563 | 0.7813 | 2.00 | 0.0897 | 0.483 | –
